Test results published in patent publication US20150031693A1, “PAK INHIBITORS FOR THE TREATMENT OF FRAGILE X SYNDROME” (AFRAXIS HOLDINGS, INC., priority 2011, published 2015).

Legend:
PAK1 [1] = biological target: T1, PAK1 (Homo sapiens, UniProt Q13153); test: Additional in vitro PAK inhibition assay, PAK1; type: biochemical
Protocol: (§1) Additional In Vitro PAK Inhibition Assay
(§2) Similar in vitro PAK1 and PAK4 inhibition assay was conducted in compounds for the treatment of Fragile X syndrome, but under ATP concentrations of 10 uM and 1 mM.

PAK4 [2] = biological target: T2, PAK4 (Homo sapiens, UniProt O96013); test: Additional in vitro PAK inhibition assay, PAK4; type: biochemical; settings: 10 μM ATP
T2 sequence (O96013 whole entry): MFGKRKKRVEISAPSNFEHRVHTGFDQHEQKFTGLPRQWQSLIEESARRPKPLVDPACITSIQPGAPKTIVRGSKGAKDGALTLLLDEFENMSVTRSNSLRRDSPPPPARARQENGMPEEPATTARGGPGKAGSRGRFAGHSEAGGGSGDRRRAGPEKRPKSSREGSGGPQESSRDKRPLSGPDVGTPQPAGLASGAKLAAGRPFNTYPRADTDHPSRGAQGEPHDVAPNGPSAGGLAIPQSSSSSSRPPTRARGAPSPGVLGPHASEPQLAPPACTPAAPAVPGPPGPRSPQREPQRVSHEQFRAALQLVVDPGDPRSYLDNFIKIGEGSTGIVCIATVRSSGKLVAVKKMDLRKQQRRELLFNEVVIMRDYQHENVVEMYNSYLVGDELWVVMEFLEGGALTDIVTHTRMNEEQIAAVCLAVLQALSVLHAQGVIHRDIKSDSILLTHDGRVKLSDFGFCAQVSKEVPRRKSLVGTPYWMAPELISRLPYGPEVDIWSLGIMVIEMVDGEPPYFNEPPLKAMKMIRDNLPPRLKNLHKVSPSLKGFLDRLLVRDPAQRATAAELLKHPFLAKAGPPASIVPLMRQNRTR
Protocol: as §1, §2

PAK4 [3] = biological target: T2, PAK4; test: In vitro PAK inhibition assay (Z'-LYTE), PAK4; type: biochemical
Protocol: (§3) In Vitro PAK Inhibition Assay
(§4) Compounds are screened in 1% DMSO (final) in the well. For 10 point titrations, 3-fold serial dilutions are conducted. All Peptide/Kinase Mixtures are diluted to a 2× working concentration in the appropriate Kinase Buffer
(§5) The 2× PAK4/Ser/Thr 20 mixture is prepared in 50 mM HEPES pH 7.5, 0.01% BRIJ-35, 10 mM MgCl2, 1 mM EGTA. The final 10 μL Kinase Reaction consists of 0.1-0.75 ng PAK4 and 2 μM Ser/Thr 20 in 50 mM HEPES pH 7.5, 0.01% BRIJ-35, 10 mM MgCl2, 1 mM EGTA. After the 1 hour Kinase Reaction incubation, 5 μL of a 1:256 dilution of Development Reagent A is added.
(§6) Bar-coded Corning, low volume NBS, black 384-well plate (Corning Cat. #3676) • 1. Add the following solutions to a well in a 384-well plate: 2.5 μL of 4× Test Compound OR (100 nL 100× Test Compound plus 2.4 μL kinase buffer) • 5 μL of 2× Peptide/Kinase (PAK) Mixture • 2.5 μL of 4× ATP Solution • 2. Shake the plate for 30-seconds • 3. Incubate the PAK Kinase Reaction at room temperature for 60-minutes • 4. Add 5 μL of Development Reagent Solution to each well • 5. Shake the plate for 30-seconds • 6. Incubate the Development Reaction for 60-minutes • 7. Determine the fluorescence using a fluorescence plate reader • 8. Analyze the fluorescence data
(§7) SelectScreen® Kinase Profiling Service uses XLfit from IDBS. The dose response curve is curve fit to model number 205 (sigmoidal dose-response model).
(§8) The table below provides specifications and data around each kinase. The representative IC50 value with a known inhibitor for each kinase was determined at the ATP bin nearest to the ATP Km app.

PAK3 = PAK3 (Homo sapiens, UniProt O75914); test: In vitro PAK inhibition assay (Z'-LYTE), PAK3; type: biochemical
PAK3, sequence (O75914 whole entry): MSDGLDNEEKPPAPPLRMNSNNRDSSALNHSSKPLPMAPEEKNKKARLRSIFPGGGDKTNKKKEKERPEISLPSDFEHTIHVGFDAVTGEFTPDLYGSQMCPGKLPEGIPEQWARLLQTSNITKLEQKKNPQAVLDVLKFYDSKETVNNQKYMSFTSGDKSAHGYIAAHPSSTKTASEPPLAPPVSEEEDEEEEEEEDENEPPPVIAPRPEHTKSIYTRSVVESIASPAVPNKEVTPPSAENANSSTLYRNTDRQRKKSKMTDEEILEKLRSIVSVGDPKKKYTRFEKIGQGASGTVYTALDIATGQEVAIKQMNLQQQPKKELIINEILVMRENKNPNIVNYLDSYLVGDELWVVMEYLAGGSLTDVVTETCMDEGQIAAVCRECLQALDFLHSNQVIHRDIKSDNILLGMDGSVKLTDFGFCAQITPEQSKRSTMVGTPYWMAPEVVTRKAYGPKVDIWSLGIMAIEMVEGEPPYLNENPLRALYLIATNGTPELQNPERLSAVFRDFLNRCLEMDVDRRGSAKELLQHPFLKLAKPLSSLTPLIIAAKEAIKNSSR
Protocol: as §3, §4
as §5, with “PAK3/Ser/Thr” for “PAK4/Ser/Thr”, “2.25-22” for “0.1-0.75”, “PAK3” for “PAK4”
as §6, §7, §8

PAK1 [4] = biological target: T1, PAK1; test: In vitro PAK inhibition assay (Z'-LYTE), PAK1; type: biochemical
Protocol: as §3, §4
as §5, with “PAK1/Ser/Thr 19” for “PAK4/Ser/Thr 20”, “2.71-30.8” for “0.1-0.75”, “PAK1” for “PAK4”, “19” for “20”, “1:128” for “1:256”
as §6, §7, §8

PAK2 (PAK65) = PAK2 (PAK65) (Homo sapiens, UniProt Q13177); test: In vitro PAK inhibition assay (Z'-LYTE), PAK2; type: biochemical
PAK2 (PAK65), sequence (Q13177 whole entry): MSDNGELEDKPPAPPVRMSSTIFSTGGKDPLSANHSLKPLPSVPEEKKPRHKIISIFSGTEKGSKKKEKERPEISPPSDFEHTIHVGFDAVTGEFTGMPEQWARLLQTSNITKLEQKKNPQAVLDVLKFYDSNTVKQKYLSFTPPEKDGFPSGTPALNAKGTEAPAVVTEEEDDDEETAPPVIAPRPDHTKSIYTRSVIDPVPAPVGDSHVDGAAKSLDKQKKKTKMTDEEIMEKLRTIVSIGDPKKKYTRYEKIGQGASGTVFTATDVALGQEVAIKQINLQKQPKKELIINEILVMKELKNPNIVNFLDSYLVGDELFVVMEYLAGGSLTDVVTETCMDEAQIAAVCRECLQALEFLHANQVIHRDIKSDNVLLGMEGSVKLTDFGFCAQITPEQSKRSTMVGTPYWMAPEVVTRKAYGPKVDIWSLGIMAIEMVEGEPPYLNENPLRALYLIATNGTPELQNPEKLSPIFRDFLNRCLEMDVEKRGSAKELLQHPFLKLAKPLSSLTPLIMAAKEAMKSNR
Protocol: as §3, §4
as §5, with “PAK2 (PAK65)/Ser/Thr” for “PAK4/Ser/Thr”, “0.29-6” for “0.1-0.75”, “PAK2 (PAK65)” for “PAK4”
as §6, §7, §8

p-PAK1(S144) = test: In vitro cellular HTRF assay for p-PAK1(S144); type: cell-based; settings: cell line RT4-D6P2T, read-out: pPAK1(S144)
Description: (§9) In Vitro p-PAK1(S144) and p-MEK1(S298) Cellular Assay
(§10) The cell line is RT4-D6P2T.

p-MEK1(S298) = test: In vitro cellular HTRF assay for p-MEK1(S298); type: cell-based; settings: cell line RT4-D6P2T, read-out: pMEK1(S298)
Description: as §9, §10

T1 sequence (Q13153 whole entry): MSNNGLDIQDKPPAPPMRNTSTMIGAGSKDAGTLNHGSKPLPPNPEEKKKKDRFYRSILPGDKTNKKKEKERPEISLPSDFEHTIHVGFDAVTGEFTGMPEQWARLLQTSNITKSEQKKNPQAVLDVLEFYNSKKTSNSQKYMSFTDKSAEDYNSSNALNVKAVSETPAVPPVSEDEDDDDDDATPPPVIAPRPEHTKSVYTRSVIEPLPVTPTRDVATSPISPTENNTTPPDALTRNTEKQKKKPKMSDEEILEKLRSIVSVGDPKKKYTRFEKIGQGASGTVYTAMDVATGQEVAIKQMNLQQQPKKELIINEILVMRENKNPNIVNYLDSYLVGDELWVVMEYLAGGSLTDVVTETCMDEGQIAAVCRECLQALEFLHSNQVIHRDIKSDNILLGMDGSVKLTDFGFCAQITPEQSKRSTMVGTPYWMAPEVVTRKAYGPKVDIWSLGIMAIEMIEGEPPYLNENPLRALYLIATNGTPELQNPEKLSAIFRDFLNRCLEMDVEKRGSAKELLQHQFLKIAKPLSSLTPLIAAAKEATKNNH

| SMILES | IC50 (PAK1 [1]; 10 μM ATP, read-out: PAK1 IC50 (10 μM ATP)) [nM] | IC50 (PAK1 [1]; 1 mM ATP, read-out: PAK1 IC50 (1 mM ATP)) [nM] | IC50 (PAK4 [2]) [nM] | IC50 (PAK4 [3]) [nM] | IC50 (PAK3) [nM] | IC50 (PAK1 [4]) [nM] | IC50 (PAK2 (PAK65)) [nM] | IC50 (p-PAK1(S144)) [nM] | IC50 (p-MEK1(S298)) [nM] |
| --- | --- | --- | --- | --- | --- | --- | --- | --- | --- |
| CCn1c(=O)c(-c2ccc(-c3noc(C)n3)cc2Cl)cc2cnc(N[C@@H]3COC[C@@H]3N3CCN(C)CC3)nc21 | 50 to 500 | > 5000 | > 5000 | – | – | – | – | – | – |
| CCn1c(=O)c(-c2ccc(-c3nccnc3C)cc2Cl)cc2cnc(NCCCO)nc21 [Example 3] | – | – | – | > 5000 | 50 to 500 | 50 to 500 | 50 to 500 | – | – |
| CCn1c(=O)c(-c2ccc(-c3cncc(C)n3)cc2Cl)cc2cnc(N[C@H]3CC[C@H](CN(C)C)CC3)nc21 | – | – | – | – | – | – | – | 500 to 5000 | 500 to 5000 |
| Cc1cncc(-c2ccc(-c3cc4cnc(NC(CCO)CCO)nc4n(Cc4ccccc4C(F)(F)F)c3=O)c(Cl)c2)n1 [Example 2] | – | – | – | > 5000 | 50 to 500 | 50 to 500 | 50 to 500 | – | – |
| CCn1c(=O)c(-c2ccc(-c3cncc(C)n3)cc2Cl)cc2cnc(NCCCO)nc21 [Example 1, 6-(2-chloro-4-(6-methylpyrazin-2-yl)phenyl)-8-ethyl-2-((3-hydroxypropyl)amino)pyrido[2,3-d]pyrimidin-7(8H)-one] | – | – | – | > 5000 | 50 to 500 | 50 to 500 | 50 to 500 | – | – |

More lines, now with the values ahead:

| IC50 (PAK1 [1]; 10 μM ATP, read-out: PAK1 IC50 (10 μM ATP)) [nM] | IC50 (PAK1 [1]; 1 mM ATP, read-out: PAK1 IC50 (1 mM ATP)) [nM] | IC50 (PAK4 [2]) [nM] | IC50 (PAK4 [3]) [nM] | IC50 (PAK3) [nM] | IC50 (PAK1 [4]) [nM] | IC50 (PAK2 (PAK65)) [nM] | IC50 (p-PAK1(S144)) [nM] | IC50 (p-MEK1(S298)) [nM] | SMILES |
| --- | --- | --- | --- | --- | --- | --- | --- | --- | --- |
| – | – | – | > 5000 | 500 to 5000 | 50 to 500 | 50 to 500 | – | – | CCn1c(=O)c(-c2ccc(-c3cncc(C)n3)cc2Cl)cc2cnc(NCCOC)nc21 [Example 11] |
| – | – | – | > 5000 | 500 to 5000 | 500 to 5000 | 500 to 5000 | – | – | CCn1c(=O)c(-c2ccc(-c3nccnc3C)cc2Cl)cc2cnc(NC(CCO)CCO)nc21 [Example 5] |
| – | – | – | > 5000 | 500 to 5000 | 50 to 500 | 50 to 500 | – | – | CCn1c(=O)c(-c2ccc(-c3nccnc3C)cc2Cl)cc2cnc(NCCOC)nc21 [Example 8] |
| – | – | – | > 5000 | 50 to 500 | 50 to 500 | 50 to 500 | – | – | CCn1c(=O)c(-c2ccc(-c3cncc(C)n3)cc2Cl)cc2cnc(NCCCOC)nc21 [Example 10] |
| – | – | – | > 5000 | 50 to 500 | 50 to 500 | 50 to 500 | – | – | CCn1c(=O)c(-c2ccc(-c3cncc(C)n3)cc2Cl)cc2cnc(NCCO)nc21 [Example 7] |
| – | – | – | > 5000 | 500 to 5000 | 50 to 500 | 50 to 500 | – | – | CCn1c(=O)c(-c2ccc(-c3nccnc3C)cc2Cl)cc2cnc(NCCCOC)nc21 [Example 9] |
| – | – | – | > 5000 | 50 to 500 | 50 to 500 | 50 to 500 | – | – | CCn1c(=O)c(-c2ccc(-c3nccnc3C)cc2Cl)cc2cnc(NCCO)nc21 [Example 6] |
| – | – | – | > 5000 | 500 to 5000 | 500 to 5000 | 50 to 500 | – | – | CCn1c(=O)c(-c2ccc(-c3cncc(C)n3)cc2Cl)cc2cnc(NC(CCO)CCO)nc21 [Example 4] |
